The test system of assay [1] is NF1−/− (ipNF95.6) immortalized human-derived Schwann cells. The assay can be described thus: Caspase-Glo 3/7 apoptosis assay, NF1 deficient Schwann cells. Format: cell-based. The text has this: (§1) In this study the efficacy of nitroxoline was investigated and its ability to reduce cellular proliferation, increase apoptosis, and overall cell viability utilizing immortalized wild-type (WT) and NF1 deficient (Nf1^−/−) Schwann cells (SCs). Nf1^−/− SCs have increased survival and proliferation in vitro, consistent with the in vivo phenotypes (Kim H A et al., Mol Cell Biol. 1997; 17 (2): 862-72). The present studies utilize WT (ipn02.3λ) and NF1^−/− (ipNF95.6) immortalized human-derived SC lines. The selectivity of nitroxoline was compared between NF1^−/− and WT cells.
(§2) Cells were treated with serially diluted nitroxoline starting from […] and incubated for 48 hours. After the incubation period, proliferation, viability, and apoptosis assays were performed as described below: • Cell proliferation was assessed using the CellTiter-Glo Assay (Promega) which measures ATP consumption. […] After 10 minutes, the plates were read using a 96-well microplate luminometer. • Cellular apoptosis was assessed using the Caspase-Glo 3/7 kit (Promega). […] After 10 minutes, plates were read using a 96 well luminometer and caspase 3/7 activity was measured.

Assay [2] deals with WT (ipn02.3λ) immortalized human-derived Schwann cells. The assay can be described thus: CellTiter-Glo cell proliferation assay, WT Schwann cells. Format: cell-based. Particulars: 48 hours incubation.
Text: as §1, §2

Assay [3] concerns NF1−/− (ipNF95.6) immortalized human-derived Schwann cells. The assay can be described thus: CellTiter-Glo cell proliferation assay, NF1 deficient Schwann cells. Format: cell-based. The note with it: 48 hours incubation.
Text: as §1, §2
On the technique in general: ATP-based viability assays read luminescence as a measure of living cells.

The test system of assay [4] is Postn-Cre+ Nf1fl/fl mouse model of plexiform neurofibroma. The assay can be described thus: In vivo drug testing in Nf1-KO mice (plexiform neurofibroma model). The note with it: oral gavage, 12 weeks. The text has this:
The aim of this study was to evaluate the effect of nitroxoline in a mouse model of neurofibromatosis type 1, more specifically a model that develops plexiform neurofibromas. This study is the same used by AstraZeneca for the approval of selumetinib for pNF.
This study uses the Postn-Cre+Nf1^fl/fl mouse model of plexiform neurofibroma. The neurofibromas that arise in these mice faithfully recapitulate human disease (Burks et al. 2019). At 4 months of age when mice (male and female) had established plexiform neurofibromas they were randomised into three treatment groups and administered nitroxoline at 120 mg/kg QD, 120 mg/kg BD or vehicle (10% DMSO in 90% corn oil) via oral gavage. Mice were treated for 12 weeks then sacrificed. Mice were perfused and fixed in 10% neutral buffered formalin.
The whole bodies were decalcified in 5% formic acid, the spinal proximal nerve tree was dissected, and nerve width (including the tumour formed along it) measured via calliper (shown in FIG. 3) across four nerves per mouse. Nerve volume was subsequently calculated using a spheroid calculation: 0.52×(width) 2 w length.
To quantify tumour number, the nerves were processed to paraffin blocks, sectioned, and stained for collagen using Masson's trichrome stain. Tumour number was scored from these slides by a clinician.
Graphs and statistical analysis of data were produced using GraphPad Prism (Ver 9).

The test system of assay [5] is WT (ipn02.3λ) immortalized human-derived Schwann cells. The assay can be described thus: Caspase-Glo 3/7 apoptosis assay, WT Schwann cells. Format: cell-based. Particulars: 48 hours incubation, caspase 3/7 activity.
Text: as §1, §2

Structures are written as SMILES.

As to `O=[N+]([O-])c1ccc(O)c2ncccc12` [Nitroxoline, 5-nitroquinolin-8-ol], the “concentration at which induction of apoptosis was evident” value in assay [1] (Nf1−/− Schwann cells, 48 hours incubation, caspase 3/7 activity) is “greater than 3 UM”; in assay [5] it was “greater than 3 UM”. Moreover, the “magnitude of the increase in apoptosis in Nf1−/− SC compared with WT SC” value in assay [1] (at concentrations greater than 10 μM, 48 hours) is given as “significantly greater”. The “concentration at which antiproliferative effect was observed” value in assay [2] and in assay [3] was “greater than 1 μM” each time. Besides, the “proximal nerve volume compared to vehicle treated control mice” value in assay [4] (120 mg/kg BD) and in assay [4] (120 mg/kg QD) was “lower proximal nerve volumes” in each case. In addition, the “tumour number along the nerves compared to vehicle controls” value in assay [4] (nitroxoline treated mice (120 mg/kg QD or BD)) is “a reduction in tumour number”.

(Values after patent US20250000852A1, “NITROXOLINE FOR USE IN THE TREATMENT OR PREVENTION OF A PLEXIFORM NEUROFIBROMA” (HEALX LTD, priority 2021, published 2025).)
